# Test results from patent publication US20150231109A1, “COMBINATIONS (CATECHINS AND METHOTREXATE) FOR USE IN THE TREATMENT OF MELANOMAS” (UNIVERSIDAD DE MURCIA, priority 2012, published 2015).
# Read-outs that look alike come from different tables or passages of the source.
# Legend:
# MITF = experiment: ChIP assay, occupancy of MITF on TYR and Pmel17 genes in SK-MEL-28 cells; type: cell-based; conditions: Homo sapiens, SK-MEL-28, MTX 4 h
# Procedure: F, Chromatin immunoprecipitation on TYR and Pmel17 genes of control and MTX-treated (4 h, 1 μM) SK-MEL-28 cells with qRT-PCR after immunoprecipitation with IgG, or MITF and HDAC3 antibodies.
# The ChIP assay was performed with the Magna ChIP™ G kit from Millipore according to the manufacturer's instructions. […] The cross-linked chromatin was then used for immunoprecipitation with MITF antibody, HDAC3 antibody (positive control) or mouse IgG (negative control). DNA from lysates prior to immunoprecipitation was used as positive input controls.
# [1] = Toxicology in non-tumor inoculated C57BL/6 mice; type: in vivo, mouse
# Procedure: FIGS. 4A-N. MTX and TMECG combination therapy is effective in vivo. A, A375 melanoma cells were included in a human reconstructed skin model and were treated with MTX (1 μM) and/or TMECG (10 μM) for 14 days. B, B16/F10 melanoma cells were injected subcutaneously into C57/B16 mice. Images show tumor size 17 days post-injection in control and treated mice. […] C, Luciferase imaging of control and MTX/TMECG-treated mice 12 days post-tumor cell injection. Beetle luciferin (120 mg/kg of mouse) was injected intraperitoneally. The values (means±s.d.) are representative of three independent experiments. *P=0.007; **P=0.002. D, Bioluminescent imaging of livers at 14 days post-intrasplenic injection of B16-F10-luc-G5 cells from untreated and MTX/TMECG-treated mice are shown. E, Quantification of macrometastases (0-10, 10-25 or >25) after treatment with vehicle (control), MTX (1 mg/kg/day), and/or TMECG (50 mg/kg/day). F, Photomicrograph of H&E-stained, 4 μm formalin-fixed, paraffin-embedded liver sections from control (DMSO) and MTX/TMECG-treated mice (1 and 50 mg/kg/day, respectively) (5× magnification). G, MTX activation of MITF and tyrosinase activates the melanoma-specific antifolate activity of TMECG, leading to depletion of cellular dTTP and apoptosis. H, Sections stained with hematoxylin and eosin show the effect of MTX/TMECG on B16/F10 primary splenic tumors. Xenograft tumors treated with DMSO (vehicle) or MTX/TMECG (1 mg/kg/day and 50 mg/kg/day, respectively) over 14-days. […] Representative images taken from two independent experiments (n=5 for each experiment). Scale bar=200 μm and is applicable to both panels. I, B16/F10 melanoma cells, expressing a luciferase reporter, were injected subcutaneously to mice. Mice were divided in two groups (n=7) and treated with vehicle (DMSO) or MTX/TMECG (1 mg/kg/day and 10 mg/kg/day, respectively) over 21-days. Then, tumors were pooled and dissociated. B16/F10 cells extracted from tumors were examined for their sensitivity to the MTX/TMECG combination (1 μM and 10 μM, respectively) using quantification of the luminescence signal (left panel). J, The histogram represents the number of B16/F10-luc2 cells remaining after 3 days of MTX/TMECG treatment with respect to vehicle treated controls (100%). […] K, The morphology of tumor dissociated B16/F10-luc2 cells before and after of MTX/TMECG treatment. Scale bar refers to all panels. L, Histograms represent the number of copies of TYR mRNA for every 1×10^3 copies of β-actin±SD of three independent experiments. […]
# To explore the toxicity of TMECG and MTX, these agents (at indicated concentrations) were administrated intradermally to the back of non-tumor inoculated female C57BL/6 mice (n=10), and body weight monitored every other day. […]
# E2F1 = experiment: MALDI-TOF mass spectroscopy of immunoprecipitated E2F1 tryptic digests from SK-MEL-28 cells; type: cell-based, human; conditions: SK-MEL-28, 24 h, normalized to internal matrix control
# Procedure: SK-MEL-28 whole cell lysates were immunoprecipitated as described above but with two variations. First, the lysis and dilution buffers contained 2.5 μM trichostatin (a potent deacetylase inhibitor) and 20 μM trans-2-phenylcyclo-propylamine (an irreversible inhibitor of lysine-specific demethylase 1, LSD1). Second, the E2F1 antibody was covalently coupled to Dynabeads® (Invitrogen). After immunoprecipitation and elution, bound proteins were digested with trypsin according to standard procedures (Shevchenko). Data were recorded and processed with Agilent MassHunter Workstation Software for obtaining the Peptide Mass Fingerprint (PMF). The PMF result mass spectra were searched against the E2F1 protein sequence with carbamidomethylation of cysteine as fixed modification and methylation and acetylation of lysine residues, oxidation of methionine residues and phosphorylation of serine residues as variable modifications. Peptide mass tolerance was set to 50 ppm and a maximum of three missed cleavages was considered.
structure (smiles),measurement,setting,value
"CN(Cc1cnc2nc(N)nc(N)c2n1)c1ccc(C(=O)N[C@@H](CCC(=O)O)C(=O)O)cc1 [MTX, methotrexate]",receptor occupancy at 1 µM,"MITF; untreated cells 1.5%, read-out: occupancy of MITF on the TYR promoter with respect to an input control",25.2%
same,receptor occupancy at 1 µM,"MITF; untreated cells 5.4%, read-out: occupancy of MITF on the promoter/enhancer of the Pmel17 gene with respect to an input control",45.4%
same,mouse body weight,[1]; MTX 10 mg/kg/day,induced some weight loss
same,mouse body weight,[1]; MTX alone 1 mg/Kg/day,no effect
same,Intensity of phosphorylated (S364) E2F1 peptide,E2F1; CN 11,24
same,Intensity of phosphorylated (S31) E2F1 peptide,E2F1; CN 46,12
same,"Intensity of hyperacetylated (K117,120,125) E2F1 peptide",E2F1; CN 49,329
same,Intensity of non-methylated (K185) E2F1 peptide (K)NHIQWLGSHTTVGVGGR(L),E2F1; CN 64,379
same,Intensity of non-phosphorylated (S31) E2F1 peptide,E2F1; CN 295,312
same,Intensity of non-phosphorylated (S364) E2F1 peptide,E2F1; CN 318,310
same,Intensity of non-acetylated E2F1 peptide (K)SPGEK(S),E2F1; CN 320,20
same,Intensity of non-acetylated E2F1 peptide (R)HPGK(G),E2F1; CN 325,16
same,Intensity of methylated (K185) E2F1 peptide,E2F1; CN 355,18
